Details: in n-octanol

SMILES	solubility (mole fraction) (303.15 K)	solubility (mole fraction) (308.15 K)	solubility (mole fraction) (313.15 K)	solubility (mole fraction) (323.15 K)	solubility (mole fraction) (328.15 K)	solubility (mole fraction) (333.15 K)	solubility (mole fraction) (298.15 K)	solubility (mole fraction) (318.15 K)
COc1cc(NS(=O)(=O)c2ccc(N)cc2)ncn1	8.68e-05	9.52e-05	0.000104	0.00012	0.000129	0.000136	–	–
COc1cnc(NS(=O)(=O)c2ccc(N)cc2)nc1	9.42e-05	0.000101	0.000108	0.000123	0.000132	0.000141	8.8e-05	0.000115
COc1cc(NS(=O)(=O)c2ccc(N)cc2)nc(OC)n1	0.00018	0.000194	0.000213	0.000261	0.000294	0.000332	0.000167	0.000235
